# Test system: K12877-001-R-J1-PDC complex spheroid viability
# Experiment: Anticancer human tumor K12877-001-R-J1-PDC patient-derived lung adenocarcinoma cell line growth inhibition [RAS]
# Conditions: for viability, T/C: stronger effect = lower value
# Source text: RAS pathway inhibitors in Combinations in Complex Spheroids
# A high-throughput screen of multi-cell type tumor spheroids was designed to identify active combinations of RAS pathway inhibitors and targeted small molecules. Complex spheroids include a stromal component modeled by human endothelial cells (HUVEC) and fibroblasts modeled by human mesenchymal stem cells (MSCs). The concentration ranges selected for each drug and investigational agent were based upon clinically achievable concentrations if the clinical Cmax of the agent was known.
# Compounds. The drugs and investigational agents: abemaciclib (NSC768073), cobimetinib (NSC768068), divarasib (GDC6063, NSC841802), docetaxel (NSC628503), GDC-1971 (RLY-1971, NSC841576), gemcitabine (NSC613327), inavolisib (NSC800729), ipatasertib (NSC767898), KB-0742 (NSC834161), MRTX-1133 (NSC836407), osimertinib (NSC779217), RMC-4630 (NSC839698), RMC-6236 (NSC851965), RMC-6291 (NSC852671), Ro-3306 (NSC812927), sapanisertib (NSC764658), SN-38 (NSC673596), staurosporine (NSC755774), SY5609 (NSC837396), and tovorafenib (DAY101, NSC766906), were obtained from the National Cancer Institute (NCI) Developmental Therapeutics Program Chemical Repository. The FDA-approved anticancer drug set is available from the NCI Developmental Therapeutics Program. […] The stock solutions were prepared in dimethyl sulfoxide (DMSO, Sigma-Aldrich, St. Louis, MO, cat. D2650) at 800-fold the tested concentration and stored at -70 degrees C prior to their use. All drugs and investigational agents were tested over a range starting from a high concentration at or near the clinical Cmax and decreasing in half-log increments. If the clinical Cmax for an agent had not been determined, the highest concentration tested was 10 microM.
# Cell Culture. All cells were maintained in an incubator at 37 degrees C and 5% CO2 with 95% humidity. The PDC lines were cultured according to standard operating procedures established by the NCI PDMR. All PDCs were thawed and cultured in Matrigel-coated flasks prepared with a working solution of 1X Ham's F-12 nutrient mix, without supplementation (Invitrogen, Waltham, MA, cat. 11765054), 100 U/mL penicillin-streptomycin (Invitrogen, cat. 15140122), and 2.5% Matrigel (Corning Inc., Corning, NY, cat. 354248) for the first three passages. The 362531-283-R-J2-PDC and 782815-120-R-J1-PDC lines were cultured in 6C/Colon 1B media, which includes advanced DMEM/F-12 (Thermo Fisher Scientific, cat. 12634028), 10 mM HEPES (Thermo Fisher Scientific, cat. 15630080), 1X GlutaMAX supplement (Thermo Fisher Scientific, cat. 35050061), 0.1 mg/mL primocin (InvivoGen, San Diego, CA, cat. ant-pm-2), 10% defined fetal bovine serum, heat inactivated (HyClone Laboratories Inc., Logan, UT, cat. SH30070.03HI), 50% L-WRN conditioned media (ATCC, cat. CRL-3276), 1.25 mM N-Acetyl-L-cysteine (Sigma-Aldrich, cat. A9165), 10 mM nicotinamide (Sigma-Aldrich, cat. N0636), 1X B-27 supplement (Thermo Fisher Scientific, cat. 17504044), 1X N-2 supplement (Thermo Fisher Scientific, cat. 17502048), 50 ng/mL human EGF (Thermo Fisher Scientific, cat. PHG0311), and 10 microM Y-27632 dihydrochloride (Tocris Bioscience, cat. 1254). The K12877-001-R-J1-PDC line was cultured in 6I media, which includes all 6C/Colon 1B media plus 10 ng/mL human FGF-10 (PeproTech, cat. 100-26), 1 ng/mL human FGF-2 (PeproTech, cat. 100-18B), 1 µM prostaglandin E2 (Tocris Bioscience, cat. 2296), […] hydrocortisone (Sigma-Aldrich, cat. H4001), and […] bovine insulin (Sigma-Aldrich, cat. I6634). The K86415-001-R-J1-PDC line was cultured in 6D media, which includes all 6C/Colon 1B media components minus the L-WRN conditioned media. The 485176-168-R4-J1-PDC was cultured in PANC media, which includes all 6C/Colon 1B media plus 100 ng/mL human FGF-10 (PeproTech, cat. 100-26), 500 nM SB-431542 (Selleckchem, cat. S1067), and 10 nM gastrin (Tocris Bioscience, cat. 3006). […]
# [1] = curve of first compound, second compound 0.000949 µM
# [2] = curve of first compound, second compound 0.003 µM
# [3] = curve of first compound, second compound 0.00949 µM
# [4] = curve of first compound, second compound 0.03 µM
# [5] = curve of first compound, second compound 0.0949 µM
# [6] = curve of first compound, second compound 0.3 µM
# [7] = second compound 0.000949 µM, first compound 0.0316 µM
# [8] = second compound 0.000949 µM, first compound 0.1 µM
# [9] = second compound 0.000949 µM, first compound 0.316 µM
# [10] = second compound 0.000949 µM, first compound 1 µM
# [11] = second compound 0.000949 µM, first compound 3.16 µM
# [12] = second compound 0.000949 µM, first compound 10 µM
# [13] = second compound 0.003 µM, first compound 0.0316 µM
# [14] = second compound 0.003 µM, first compound 0.1 µM
# [15] = second compound 0.003 µM, first compound 0.316 µM
# [16] = second compound 0.003 µM, first compound 1 µM
# [17] = second compound 0.003 µM, first compound 3.16 µM
# [18] = second compound 0.003 µM, first compound 10 µM
# [19] = second compound 0.00949 µM, first compound 0.0316 µM
# [20] = second compound 0.00949 µM, first compound 0.1 µM
# [21] = second compound 0.00949 µM, first compound 0.316 µM
# [22] = second compound 0.00949 µM, first compound 1 µM
# [23] = second compound 0.00949 µM, first compound 3.16 µM
# [24] = second compound 0.00949 µM, first compound 10 µM
# [25] = second compound 0.03 µM, first compound 0.0316 µM
# [26] = second compound 0.03 µM, first compound 0.1 µM
# [27] = second compound 0.03 µM, first compound 0.316 µM
# [28] = second compound 0.03 µM, first compound 1 µM
# [29] = second compound 0.03 µM, first compound 3.16 µM
# [30] = second compound 0.03 µM, first compound 10 µM
# [31] = second compound 0.0949 µM, first compound 0.0316 µM
# [32] = second compound 0.0949 µM, first compound 0.1 µM
# [33] = second compound 0.0949 µM, first compound 0.316 µM
# [34] = second compound 0.0949 µM, first compound 1 µM
# [35] = second compound 0.0949 µM, first compound 3.16 µM
# [36] = second compound 0.0949 µM, first compound 10 µM
# [37] = second compound 0.3 µM, first compound 0.0316 µM
# [38] = second compound 0.3 µM, first compound 0.1 µM
# [39] = second compound 0.3 µM, first compound 0.316 µM
# [40] = second compound 0.3 µM, first compound 1 µM
# [41] = second compound 0.3 µM, first compound 3.16 µM
# [42] = second compound 0.3 µM, first compound 10 µM
# 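Note: spheroids exposed to agents for one week before readout.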
smiles,measurement,setting,value
CCC(CC)c1cc(NC2CCC(N)C2)n2nccc2n1 (stereo unspecified) + CCn1c(-c2cccnc2C(C)OC)c2c3cc(ccc31)N1CCOC(CC(NC(=O)C(C(C)C)N(C)C(=O)C3(F)CCN(C(=O)C#CC(C)(C)N(C)C)CC3)C(=O)N3CCCC(N3)C(=O)OCC(C)(C)C2)C1,IC50,[1],1300 nM
same,IC50,[2],1020 nM
same,IC50,[3],877 nM
same,IC50,[4],903 nM
same,IC50,[5],808 nM
same,IC50,[6],508 nM
same,"viability, T/C",[7],78.9%
same,"viability, T/C",[8],83.2%
same,"viability, T/C",[9],80.2%
same,"viability, T/C",[10],64.3%
same,"viability, T/C",[11],1.95%
same,"viability, T/C",[12],0.98%
same,"viability, T/C",[13],72%
same,"viability, T/C",[14],85.8%
same,"viability, T/C",[15],72.8%
same,"viability, T/C",[16],51%
same,"viability, T/C",[17],1.27%
same,"viability, T/C",[18],1.35%
same,"viability, T/C",[19],85.2%
same,"viability, T/C",[20],70.9%
same,"viability, T/C",[21],69.5%
same,"viability, T/C",[22],48%
same,"viability, T/C",[23],1.95%
same,"viability, T/C",[24],0.75%
same,"viability, T/C",[25],74%
same,"viability, T/C",[26],70.5%
same,"viability, T/C",[27],69.2%
same,"viability, T/C",[28],48%
same,"viability, T/C",[29],1.63%
same,"viability, T/C",[30],1.21%
same,"viability, T/C",[31],83.6%
same,"viability, T/C",[32],70.2%
same,"viability, T/C",[33],75%
same,"viability, T/C",[34],44.2%
same,"viability, T/C",[35],1.61%
same,"viability, T/C",[36],1.11%
same,"viability, T/C",[37],76.8%
same,"viability, T/C",[38],69.9%
same,"viability, T/C",[39],61.7%
same,"viability, T/C",[40],33.5%
same,"viability, T/C",[41],1.98%
same,"viability, T/C",[42],0.91%
C=CC(=O)Nc1cc(Nc2nccc(-c3cn(C)c4ccccc34)n2)c(OC)cc1N(C)CCN(C)C,"viability, T/C",compound 0.00316 µM,108% [middle of 4 runs]
same,"viability, T/C",compound 0.01 µM,106% [middle of 4 runs]
same,"viability, T/C",compound 0.0316 µM,106% [middle of 4 runs]
same,"viability, T/C",compound 0.1 µM,101% [middle of 4 runs]
same,"viability, T/C",compound 0.316 µM,103% [middle of 4 runs]
same,"viability, T/C",compound 1 µM,90.8% [middle of 4 runs]
same,IC50,curve of compound,> 1000 nM
CC(Nc1ccc2c(c1)OCCn1cc(N3C(=O)OCC3C(F)F)nc1-2)C(N)=O (stereo unspecified) + CCn1c(-c2cccnc2C(C)OC)c2c3cc(ccc31)N1CCOC(CC(NC(=O)C(C(C)C)N(C)C(=O)C3(F)CCN(C(=O)C#CC(C)(C)N(C)C)CC3)C(=O)N3CCCC(N3)C(=O)OCC(C)(C)C2)C1,IC50,[1],931 nM
same,IC50,[2],472 nM
same,IC50,[3],312 nM
same,IC50,[4],571 nM
same,IC50,[5],172 nM
same,IC50,[6],81.7 nM
same,"viability, T/C",[7],73.5%
same,"viability, T/C",[8],69.8%
same,"viability, T/C",[9],55.3%
same,"viability, T/C",[10],51.5%
same,"viability, T/C",[11],37.5%
same,"viability, T/C",[12],19.3%
same,"viability, T/C",[13],74.8%
same,"viability, T/C",[14],66.8%
same,"viability, T/C",[15],48%
same,"viability, T/C",[16],40.3%
same,"viability, T/C",[17],44%
same,"viability, T/C",[18],19.2%
same,"viability, T/C",[19],76.6%
same,"viability, T/C",[20],53.7%
same,"viability, T/C",[21],50.7%
same,"viability, T/C",[22],43.6%
same,"viability, T/C",[23],34%
same,"viability, T/C",[24],22.3%
same,"viability, T/C",[25],65.8%
same,"viability, T/C",[26],62.9%
same,"viability, T/C",[27],55.2%
same,"viability, T/C",[28],44.8%
same,"viability, T/C",[29],30.5%
same,"viability, T/C",[30],16.1%
same,"viability, T/C",[31],66.8%
same,"viability, T/C",[32],52%
same,"viability, T/C",[33],44.6%
same,"viability, T/C",[34],34.4%
same,"viability, T/C",[35],28%
same,"viability, T/C",[36],13.4%
same,"viability, T/C",[37],65.5%
same,"viability, T/C",[38],41.2%
same,"viability, T/C",[39],35.7%
same,"viability, T/C",[40],28.1%
same,"viability, T/C",[41],21.8%
same,"viability, T/C",[42],8.8%
